Laboratory results published in paper PMC9856672, “SGC-CAMKK2-1: A Chemical Probe for CAMKK2” (Cells, 2023).

Legend:
CSK = biological target: T1, CSK (Homo sapiens, UniProt P41240); assay: KINOMEscan 1 μM, CSK; assay type: binding; settings: 1000 nM; Entrez CSK; read-out: Percent Control
T1 construct: purchased Eurofins DiscoverX KINOMEscan
Description: (§1) Supplement cells-12-00287-s001.zip/File S2. KinomeScan data for the CAMKK2 probe and negative control.xlsx, sheet "SGC-CAMKK2-1" | column: Percent Control

[1] = biological target: T2, RSK1(Kin.Dom.1-N-terminal) (Homo sapiens, UniProt Q15418); assay: DiscoverX KINOMEscan binding assay at 1 μM, RSK1(Kin.Dom.1-N-terminal); settings: RSK1(Kin.Dom.1-N-terminal) (RPS6KA1); Compound Concentration 1000 nM; read-out: Percent Control
T2 construct: RSK1(Kin.Dom.1-N-terminal); purchased Eurofins DiscoverX KINOMEscan
Description: as §1

MEK1 = biological target: T3, MEK1 (Homo sapiens, UniProt Q02750); assay: KINOMEscan 1 μM, MEK1; assay type: binding; settings: 1000 nM; Entrez MAP2K1; read-out: Percent Control
T3 construct: purchased Eurofins DiscoverX KINOMEscan
Description: as §1

ALK(L1196M) = biological target: T4, ALK(L1196M) (Homo sapiens, UniProt Q9UM73, L1196M); assay: KINOMEscan 1 μM, ALK(L1196M); assay type: binding; settings: 1000 nM; Entrez ALK; read-out: Percent Control
T4 construct: purchased Eurofins DiscoverX KINOMEscan
Description: as §1

SLK = biological target: T5, SLK (Homo sapiens, UniProt Q9H2G2); assay: KINOMEscan 1 μM, SLK; assay type: binding; settings: 1000 nM; Entrez SLK; read-out: Percent Control
T5 construct: purchased Eurofins DiscoverX KINOMEscan
Description: as §1

ADCK3 = biological target: T6, ADCK3 (Homo sapiens, UniProt Q8NI60); assay: KINOMEscan 1 μM, ADCK3; assay type: binding; settings: 1000 nM; Entrez CABC1; read-out: Percent Control
T6 construct: purchased Eurofins DiscoverX KINOMEscan
Description: as §1

GSK3B = biological target: T7, GSK3B (Homo sapiens, UniProt P49841); assay: KINOMEscan 1 μM, GSK3B; assay type: binding; settings: 1000 nM; Entrez GSK3B; read-out: Percent Control
T7 construct: purchased Eurofins DiscoverX KINOMEscan
Description: as §1

INSRR = biological target: T8, INSRR (Homo sapiens, UniProt P14616); assay: KINOMEscan 1 μM, INSRR; assay type: binding; settings: 1000 nM; Entrez INSRR; read-out: Percent Control
T8 construct: purchased Eurofins DiscoverX KINOMEscan
Description: as §1

BRAF = biological target: T9, BRAF (Homo sapiens, UniProt P15056); assay: KINOMEscan 1 μM, BRAF; assay type: binding; settings: 1000 nM; Entrez BRAF; read-out: Percent Control
T9 construct: purchased Eurofins DiscoverX KINOMEscan
Description: as §1

DYRK2 = biological target: T10, DYRK2 (Homo sapiens, UniProt Q92630); assay: KINOMEscan 1 μM, DYRK2; assay type: binding; settings: 1000 nM; Entrez DYRK2; read-out: Percent Control
T10 construct: purchased Eurofins DiscoverX KINOMEscan
Description: as §1

PHKG2 = biological target: T11, PHKG2 (Homo sapiens, UniProt P15735); assay: DiscoverX KINOMEscan binding assay at 1 μM, PHKG2; settings: Compound Concentration 1000 nM, read-out: Percent Control
T11 construct: purchased Eurofins DiscoverX KINOMEscan
Description: as §1

CDC2L2 = biological target: T12, CDC2L2 (Homo sapiens, UniProt Q9UQ88); assay: KINOMEscan 1 μM, CDC2L2; assay type: binding; settings: 1000 nM; Entrez CDC2L2; read-out: Percent Control
T12 construct: purchased Eurofins DiscoverX KINOMEscan
Description: as §1

MTOR = biological target: T13, MTOR (Homo sapiens, UniProt P42345); assay: KINOMEscan 1 μM, MTOR; assay type: binding; settings: 1000 nM; Entrez MTOR; read-out: Percent Control
T13 construct: purchased Eurofins DiscoverX KINOMEscan
Description: as §1

PFCDPK1(P.falciparum) = biological target: T14, PFCDPK1(P.falciparum) (Plasmodium falciparum, UniProt P62344); assay: DiscoverX KINOMEscan binding assay at 1 μM, PFCDPK1(P.falciparum); settings: PFCDPK1(P.falciparum) (CDPK1); Compound Concentration 1000 nM; read-out: Percent Control
T14 construct: purchased Eurofins DiscoverX KINOMEscan
Description: as §1

MYLK4 = biological target: T15, MYLK4 (Homo sapiens, UniProt Q86YV6); assay: KINOMEscan at 1 μM, MYLK4; assay type: binding; settings: 1000 nM, read-out: Percent Control
T15 construct: purchased Eurofins DiscoverX KINOMEscan
Description: (§2) Supplement cells-12-00287-s001.zip/File S2. KinomeScan data for the CAMKK2 probe and negative control.xlsx, sheet "SGC-CAMKK2-1N" | column: Percent Control

TLK2 = biological target: T16, TLK2 (Homo sapiens, UniProt Q86UE8); assay: KINOMEscan at 1 μM, TLK2; assay type: binding; settings: 1000 nM, read-out: Percent Control
T16 construct: purchased Eurofins DiscoverX KINOMEscan
Description: as §2

YANK2 = biological target: T17, YANK2 (Homo sapiens, UniProt Q9NY57); assay: KINOMEscan binding assay at 1 μM, YANK2; settings: Compound Concentration 1000 nM; read-out: Percent Control
T17 construct: purchased Eurofins DiscoverX KINOMEscan
Description: as §2

WEE2 = biological target: T18, WEE2 (Homo sapiens, UniProt P0C1S8); assay: KINOMEscan at 1 μM, WEE2; assay type: binding; settings: 1000 nM, read-out: Percent Control
T18 construct: purchased Eurofins DiscoverX KINOMEscan
Description: as §2

PCTK3 = biological target: T19, PCTK3 (Homo sapiens, UniProt Q07002); assay: KINOMEscan binding assay at 1 μM, PCTK3; settings: Compound Concentration 1000 nM; read-out: Percent Control
T19 construct: purchased Eurofins DiscoverX KINOMEscan
Description: as §2

EPHA5 = biological target: T20, EPHA5 (Homo sapiens, UniProt P54756); assay: KINOMEscan binding assay at 1 μM, EPHA5; settings: Compound Concentration 1000 nM; read-out: Percent Control
T20 construct: purchased Eurofins DiscoverX KINOMEscan
Description: as §2

PHKG1 = biological target: T21, PHKG1 (Homo sapiens, UniProt Q16816); assay: KINOMEscan at 1 μM, PHKG1; assay type: binding; settings: 1000 nM, read-out: Percent Control
T21 construct: purchased Eurofins DiscoverX KINOMEscan
Description: as §2

PIP5K1C = biological target: T22, PIP5K1C (Homo sapiens, UniProt O60331); assay: KINOMEscan binding assay at 1 μM, PIP5K1C; settings: Compound Concentration 1000 nM; read-out: Percent Control
T22 construct: purchased Eurofins DiscoverX KINOMEscan
Description: as §2

ACVR1B = biological target: T23, ACVR1B (Homo sapiens, UniProt P36896); assay: KINOMEscan at 1 μM, ACVR1B; assay type: binding; settings: 1000 nM, read-out: Percent Control
T23 construct: purchased Eurofins DiscoverX KINOMEscan
Description: as §2

ZAK = biological target: T24, ZAK (Homo sapiens, UniProt Q9NYL2); assay: KINOMEscan at 1 μM, ZAK; assay type: binding; settings: 1000 nM, read-out: Percent Control
T24 construct: purchased Eurofins DiscoverX KINOMEscan
Description: as §2

RIPK5 = biological target: T25, RIPK5 (Homo sapiens, UniProt Q6XUX3); assay: KINOMEscan at 1 μM, RIPK5; assay type: binding; settings: 1000 nM, read-out: Percent Control
T25 construct: purchased Eurofins DiscoverX KINOMEscan
Description: as §2

FLT3(ITD,F691L) = assay: KINOMEscan at 1 μM, FLT3(ITD,F691L); assay type: binding, human; settings: 1000 nM
Description: as §2

FGFR3 = biological target: T26, FGFR3 (Homo sapiens, UniProt P22607); assay: KINOMEscan at 1 μM, FGFR3; assay type: binding; settings: 1000 nM, read-out: Percent Control
T26 construct: purchased Eurofins DiscoverX KINOMEscan
Description: as §2

MET(M1250T) = biological target: T27, MET(M1250T) (Homo sapiens, UniProt P08581, M1250T); assay: KINOMEscan binding assay at 1 μM, MET(M1250T); settings: Compound Concentration 1000 nM; read-out: Percent Control
T27 construct: purchased Eurofins DiscoverX KINOMEscan
Description: as §2

FLT3 = biological target: T28, FLT3 (Homo sapiens, UniProt P36888); assay: KINOMEscan at 1 μM, FLT3; assay type: binding; settings: 1000 nM, read-out: Percent Control
T28 construct: purchased Eurofins DiscoverX KINOMEscan
Description: as §2

TIE2 = biological target: T29, TIE2 (Homo sapiens, UniProt Q02763); assay: KINOMEscan at 1 μM, TIE2; assay type: binding; settings: 1000 nM, read-out: Percent Control
T29 construct: purchased Eurofins DiscoverX KINOMEscan
Description: as §2

PIK3CA(M1043I) = biological target: T30, PIK3CA(M1043I) (Homo sapiens, UniProt P42336, M1043I); assay: KINOMEscan binding assay at 1 μM, PIK3CA(M1043I); settings: Compound Concentration 1000 nM; read-out: Percent Control
T30 construct: purchased Eurofins DiscoverX KINOMEscan
Description: as §2

FGFR3(G697C) = biological target: T31, FGFR3(G697C) (Homo sapiens, UniProt P22607, G697C); assay: KINOMEscan at 1 μM, FGFR3(G697C); assay type: binding; settings: 1000 nM, read-out: Percent Control
T31 construct: purchased Eurofins DiscoverX KINOMEscan
Description: as §2

ROCK1 = biological target: T32, ROCK1 (Homo sapiens, UniProt Q13464); assay: KINOMEscan at 1 μM, ROCK1; assay type: binding; settings: 1000 nM, read-out: Percent Control
T32 construct: purchased Eurofins DiscoverX KINOMEscan
Description: as §2

T9 sequence (P15056 whole entry): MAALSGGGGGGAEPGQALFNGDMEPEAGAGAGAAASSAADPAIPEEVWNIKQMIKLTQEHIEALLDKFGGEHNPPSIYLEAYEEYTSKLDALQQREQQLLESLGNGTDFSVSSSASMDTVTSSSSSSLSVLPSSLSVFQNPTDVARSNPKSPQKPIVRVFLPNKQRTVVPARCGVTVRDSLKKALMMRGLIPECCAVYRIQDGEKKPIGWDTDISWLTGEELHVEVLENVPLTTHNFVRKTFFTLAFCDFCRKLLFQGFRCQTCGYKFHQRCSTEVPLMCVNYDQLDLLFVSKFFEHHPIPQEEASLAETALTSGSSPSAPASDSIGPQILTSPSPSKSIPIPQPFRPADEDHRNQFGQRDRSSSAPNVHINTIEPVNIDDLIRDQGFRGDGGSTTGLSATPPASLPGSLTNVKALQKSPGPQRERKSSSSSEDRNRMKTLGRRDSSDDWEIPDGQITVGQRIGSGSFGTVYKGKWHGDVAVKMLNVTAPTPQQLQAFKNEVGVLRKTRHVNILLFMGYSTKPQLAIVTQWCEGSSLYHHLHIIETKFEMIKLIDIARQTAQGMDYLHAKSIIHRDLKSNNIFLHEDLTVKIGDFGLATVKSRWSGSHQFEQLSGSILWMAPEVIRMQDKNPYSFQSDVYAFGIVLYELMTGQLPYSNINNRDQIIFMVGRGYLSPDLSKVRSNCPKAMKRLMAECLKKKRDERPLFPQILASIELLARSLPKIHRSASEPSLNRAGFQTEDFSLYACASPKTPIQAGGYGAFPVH
T12 sequence (Q9UQ88 whole entry): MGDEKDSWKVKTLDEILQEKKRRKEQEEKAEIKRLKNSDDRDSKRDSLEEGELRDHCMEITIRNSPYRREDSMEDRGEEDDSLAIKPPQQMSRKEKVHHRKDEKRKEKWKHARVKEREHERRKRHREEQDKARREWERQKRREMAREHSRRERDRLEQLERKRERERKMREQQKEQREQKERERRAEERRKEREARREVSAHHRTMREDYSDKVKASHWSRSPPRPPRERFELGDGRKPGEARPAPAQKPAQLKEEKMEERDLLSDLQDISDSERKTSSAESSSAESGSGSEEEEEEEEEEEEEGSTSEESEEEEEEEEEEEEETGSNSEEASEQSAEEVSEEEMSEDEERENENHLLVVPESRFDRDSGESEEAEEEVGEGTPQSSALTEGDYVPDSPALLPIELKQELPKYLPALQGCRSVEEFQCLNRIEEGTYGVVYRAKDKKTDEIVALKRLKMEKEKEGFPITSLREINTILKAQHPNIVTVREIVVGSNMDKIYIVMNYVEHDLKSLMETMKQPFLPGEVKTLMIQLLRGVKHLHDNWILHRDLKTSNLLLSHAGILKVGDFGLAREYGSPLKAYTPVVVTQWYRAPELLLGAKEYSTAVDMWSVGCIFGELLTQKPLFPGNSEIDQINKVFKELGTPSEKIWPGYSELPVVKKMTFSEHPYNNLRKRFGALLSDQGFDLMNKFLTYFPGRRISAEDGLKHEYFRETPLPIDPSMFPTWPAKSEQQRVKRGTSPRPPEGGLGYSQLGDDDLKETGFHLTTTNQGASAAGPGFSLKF
T28 sequence (P36888 27-993): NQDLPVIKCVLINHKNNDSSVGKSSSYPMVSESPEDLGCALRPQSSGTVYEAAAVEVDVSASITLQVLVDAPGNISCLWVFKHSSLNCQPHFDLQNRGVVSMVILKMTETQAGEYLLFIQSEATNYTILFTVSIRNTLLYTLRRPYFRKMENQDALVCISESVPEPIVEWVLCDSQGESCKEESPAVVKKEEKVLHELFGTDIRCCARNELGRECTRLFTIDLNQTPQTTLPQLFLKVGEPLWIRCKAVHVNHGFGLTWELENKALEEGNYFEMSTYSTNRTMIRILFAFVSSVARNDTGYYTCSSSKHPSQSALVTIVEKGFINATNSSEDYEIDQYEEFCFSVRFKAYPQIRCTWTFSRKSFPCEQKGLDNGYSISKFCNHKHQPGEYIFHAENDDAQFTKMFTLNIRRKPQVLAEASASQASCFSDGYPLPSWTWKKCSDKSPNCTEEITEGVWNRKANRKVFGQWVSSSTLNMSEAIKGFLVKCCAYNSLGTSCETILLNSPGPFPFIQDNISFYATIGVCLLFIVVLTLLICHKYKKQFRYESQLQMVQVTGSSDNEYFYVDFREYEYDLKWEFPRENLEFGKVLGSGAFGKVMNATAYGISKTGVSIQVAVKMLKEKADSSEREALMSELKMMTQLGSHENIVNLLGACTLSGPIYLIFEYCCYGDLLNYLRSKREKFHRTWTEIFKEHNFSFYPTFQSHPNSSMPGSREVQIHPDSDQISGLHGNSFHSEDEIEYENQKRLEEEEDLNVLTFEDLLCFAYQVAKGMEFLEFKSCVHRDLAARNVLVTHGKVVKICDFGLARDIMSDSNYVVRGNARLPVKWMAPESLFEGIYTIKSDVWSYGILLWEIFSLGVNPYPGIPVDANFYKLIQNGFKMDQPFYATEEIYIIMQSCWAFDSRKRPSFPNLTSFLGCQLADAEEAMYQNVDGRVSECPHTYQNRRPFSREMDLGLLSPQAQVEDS
T2 sequence (Q15418 1-391 limits assumed): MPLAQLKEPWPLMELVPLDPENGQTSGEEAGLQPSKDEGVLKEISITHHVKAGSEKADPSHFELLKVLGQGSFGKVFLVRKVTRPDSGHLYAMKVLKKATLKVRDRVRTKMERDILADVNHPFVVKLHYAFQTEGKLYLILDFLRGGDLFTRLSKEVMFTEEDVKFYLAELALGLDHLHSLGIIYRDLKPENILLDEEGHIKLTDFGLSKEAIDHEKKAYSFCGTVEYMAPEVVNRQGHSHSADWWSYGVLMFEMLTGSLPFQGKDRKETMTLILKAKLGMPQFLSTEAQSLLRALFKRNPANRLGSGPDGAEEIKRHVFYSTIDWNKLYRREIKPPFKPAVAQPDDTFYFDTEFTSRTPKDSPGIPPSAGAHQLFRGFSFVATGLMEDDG
T8 sequence (P14616 27-1297): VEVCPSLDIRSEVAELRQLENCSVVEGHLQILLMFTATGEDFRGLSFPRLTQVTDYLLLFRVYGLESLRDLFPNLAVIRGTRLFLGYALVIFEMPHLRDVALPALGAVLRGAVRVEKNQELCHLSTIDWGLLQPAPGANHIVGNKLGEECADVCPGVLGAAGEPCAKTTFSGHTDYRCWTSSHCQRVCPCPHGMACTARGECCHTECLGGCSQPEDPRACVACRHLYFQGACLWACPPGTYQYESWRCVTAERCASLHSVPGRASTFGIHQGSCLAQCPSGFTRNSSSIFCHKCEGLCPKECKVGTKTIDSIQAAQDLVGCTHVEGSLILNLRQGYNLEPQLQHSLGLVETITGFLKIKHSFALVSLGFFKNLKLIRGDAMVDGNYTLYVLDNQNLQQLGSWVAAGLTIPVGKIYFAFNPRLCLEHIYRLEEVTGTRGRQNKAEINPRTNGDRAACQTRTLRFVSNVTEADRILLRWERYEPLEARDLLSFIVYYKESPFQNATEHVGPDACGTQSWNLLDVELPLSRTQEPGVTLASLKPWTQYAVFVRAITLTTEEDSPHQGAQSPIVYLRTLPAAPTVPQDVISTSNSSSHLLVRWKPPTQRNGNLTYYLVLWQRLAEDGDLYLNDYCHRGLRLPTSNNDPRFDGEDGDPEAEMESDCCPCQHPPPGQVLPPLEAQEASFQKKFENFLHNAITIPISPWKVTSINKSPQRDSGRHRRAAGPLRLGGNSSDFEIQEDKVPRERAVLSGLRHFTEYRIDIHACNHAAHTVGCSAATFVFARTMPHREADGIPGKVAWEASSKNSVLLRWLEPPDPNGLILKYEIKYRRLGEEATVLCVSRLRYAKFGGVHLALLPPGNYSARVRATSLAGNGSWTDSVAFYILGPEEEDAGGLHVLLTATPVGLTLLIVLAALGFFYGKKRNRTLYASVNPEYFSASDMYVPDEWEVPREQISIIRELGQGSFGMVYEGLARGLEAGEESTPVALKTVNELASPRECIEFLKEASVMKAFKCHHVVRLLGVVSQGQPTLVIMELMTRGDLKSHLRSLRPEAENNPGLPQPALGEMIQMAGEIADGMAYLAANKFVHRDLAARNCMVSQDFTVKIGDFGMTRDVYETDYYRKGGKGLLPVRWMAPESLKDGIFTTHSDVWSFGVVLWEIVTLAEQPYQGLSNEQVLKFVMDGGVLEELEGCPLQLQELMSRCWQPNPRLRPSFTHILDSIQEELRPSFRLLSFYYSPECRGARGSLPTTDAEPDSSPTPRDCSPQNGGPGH
T11 sequence (P15735 whole entry): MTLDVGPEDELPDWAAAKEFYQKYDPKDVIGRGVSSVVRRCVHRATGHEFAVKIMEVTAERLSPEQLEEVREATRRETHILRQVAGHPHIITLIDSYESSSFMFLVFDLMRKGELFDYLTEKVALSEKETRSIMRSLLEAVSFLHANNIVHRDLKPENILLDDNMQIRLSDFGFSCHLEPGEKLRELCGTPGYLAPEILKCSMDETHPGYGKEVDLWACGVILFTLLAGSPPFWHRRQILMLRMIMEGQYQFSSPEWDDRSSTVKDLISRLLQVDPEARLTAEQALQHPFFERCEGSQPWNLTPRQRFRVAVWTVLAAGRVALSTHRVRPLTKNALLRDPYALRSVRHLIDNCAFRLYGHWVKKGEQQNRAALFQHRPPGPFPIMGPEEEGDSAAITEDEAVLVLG
T1 sequence (P41240 whole entry): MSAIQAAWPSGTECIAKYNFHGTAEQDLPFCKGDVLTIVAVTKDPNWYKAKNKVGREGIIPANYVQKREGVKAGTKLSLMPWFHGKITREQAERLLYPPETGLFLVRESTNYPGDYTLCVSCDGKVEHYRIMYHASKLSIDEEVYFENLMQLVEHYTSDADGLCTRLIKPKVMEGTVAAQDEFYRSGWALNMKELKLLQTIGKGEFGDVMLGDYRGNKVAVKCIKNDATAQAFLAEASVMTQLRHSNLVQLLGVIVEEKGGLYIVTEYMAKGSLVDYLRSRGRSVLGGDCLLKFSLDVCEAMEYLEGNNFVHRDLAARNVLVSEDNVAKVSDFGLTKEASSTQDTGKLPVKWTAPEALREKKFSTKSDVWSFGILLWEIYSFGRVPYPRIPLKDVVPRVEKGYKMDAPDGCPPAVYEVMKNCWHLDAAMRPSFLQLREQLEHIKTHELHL

SMILES: Cc1cccc(-c2cnc3occ(-c4ccc(C(=O)O)c(C5CCCC5)c4)c3c2)c1 [SGC-CAMKK2-1 (YL-36)]
- remaining binding at 1 µM (CSK): 99%
- remaining binding at 1 µM [1]: 100%
- remaining binding at 1 µM (MEK1): 100%
- remaining binding at 1 µM (ALK(L1196M)): 96%
- remaining binding at 1 µM (SLK): 85%
- remaining binding at 1 µM (ADCK3): 100%
- remaining binding at 1 µM (GSK3B): 100%
- remaining binding at 1 µM (INSRR): 88%
- remaining binding at 1 µM (BRAF): 100%
- remaining binding at 1 µM (DYRK2): 69%
- remaining binding at 1 µM (PHKG2): 100%
- remaining binding at 1 µM (CDC2L2): 84%
- remaining binding at 1 µM (MTOR): 98%
- remaining binding at 1 µM (PFCDPK1(P.falciparum)): 100%

SMILES: O=C(O)c1ccc(-c2coc3ncc(-c4ccccc4)cc23)cc1Cl [SGC-CAMKK2-1N (UNC-YL-83)]
- remaining binding at 1 µM (MYLK4): 91%
- remaining binding at 1 µM (TLK2): 77%
- remaining binding at 1 µM (YANK2): 100%
- remaining binding at 1 µM (WEE2): 93%
- remaining binding at 1 µM (PCTK3): 100%
- remaining binding at 1 µM (EPHA5): 100%
- remaining binding at 1 µM (PHKG1): 93%
- remaining binding at 1 µM (PIP5K1C): 100%
- remaining binding at 1 µM (ACVR1B): 100%
- remaining binding at 1 µM (ZAK): 69%
- remaining binding at 1 µM (RIPK5): 78%
- Percent Control (FLT3(ITD,F691L)): 81
- remaining binding at 1 µM (FGFR3): 76%
- remaining binding at 1 µM (MET(M1250T)): 100%
- remaining binding at 1 µM (FLT3): 91%
- remaining binding at 1 µM (TIE2): 79%
- remaining binding at 1 µM (PIK3CA(M1043I)): 100%
- remaining binding at 1 µM (FGFR3(G697C)): 65%
- remaining binding at 1 µM (ROCK1): 79%
